Measured values as given in patent US20240409582A1, “DESIGN AND CHARACTERIZATION OF INHIBITORY PEPTIDES (IPEPS) DERIVED FROM OF MIEN 1 PROTEIN SEQUENCE” (priority 2022, published 2024).
“Also recorded” adds a separate entry of the source.

Tests used:
[1] = tested on: phosphorylated cofilin (inactive cofilin); assay: Western blot, phosphorylated cofilin; format: cell-based, human; conditions: whole cell lysates of MDA-MB-231 and DU-145 cells, 48 h
Description: (§1) Western blot analysis: MDA-MB-231 cells and DU-145 cells were treated with all the test peptides for 48 h. Cell lysates were prepared, and cellular protein was extracted using RIPA lysis buffer (Millipore). […] After blocking with 5% bovine serum albumin, the membrane was incubated with the primary antibodies specific for various proteins at 4° C. overnight. After primary antibody incubation, membrane was washed thrice in TBS containing 0.1% Tween-20 for 5 min each and then incubated with appropriate HRP-conjugated secondary antibody. The immunoreactive protein bands were visualized by enhanced chemiluminescence (ECL) on Alpha Innotech chemiluminescent detection system.

[2] = tested on: MDA-MB-231 cells; assay: Transwell invasion assay; format: cell-based, human; conditions: MDA-MB-231, dose-dependent
Description: Transwell Invasion Assay: The capacity of human breast cancer MDA-MB-231 cells to pass through a polyethylene terephthalate membrane (6.4 mm diameter; 8 µm pore size) was measured using transwell chambers (Corning Life Sciences) in 24-well tissue culture plates. The MDA-MB-231 were pre-treated with the increasing concentrations of each peptide for 24 h in a 0.1% FBS containing DMEM media. Next day, cells were dislodged by trypsin and 40,000 cells/well were resuspended in a serum-free DMEM containing the second treatment of peptides and were added to the upper chamber, and 10% FBS containing media was added to the bottom chambers. After incubation for another 24 h, non-invasive cells on the upper surface of the membrane were carefully removed with a cotton swab; cells were fixed in 4% paraformaldehyde solution (Affymetrix USB) for 15 minutes followed by a PBS wash; the membrane insert was then fixed with ice-cold methanol for 20 minutes followed by staining with 0.25% crystal violet. The numbers of invaded cells were counted in random fields in Image J, and results were expressed as an average number of invaded cells compared with control.

[3] = tested on: MDA-MB-231 cells; assay: RNA-seq transcriptome of MDA-MB-231 cells after peptide treatment; format: cell-based, human; conditions: MDA-MB-231, RNA-seq
Description: RNeasy Mini Kit (Cat #74106, Qiagen,) was used for RNA isolation and all procedures were performed according to the manufacturer's specification. The purification included 15 minutes of in-column DNase I (Cat #79254, Qiagen,) treatment. […] The quality was controlled using Agilent Tapestation and Qubit 4 fluorometer. Sequencing was on an illumina NextSeq 550 system as per the recommended protocol. Raw sequencing files were adapter trimmed and quality filtered using fastp. The reads were mapped to hg38 reference genome using Hisat2. Differential gene expression analysis was performed using Deseq2.

[4] = tested on: EMT genes (E-cadherin, N-Cadherin, SLUG, SNAIL, MMP-9, Zeb-1) in DU-145 prostate cancer cells; assay: RT-qPCR of EMT genes in DU-145 cells; format: cell-based, human; conditions: DU-145, qPCR
Description: RT-qPCR Method: The changes in the mRNA levels of various genes in response to the peptide treatment in DU-145 cells were examined. Briefly, total RNA was purified using the TRIzol reagent (Invitrogen) according to the manufacturer's instructions. 1 μg of total RNA was reverse transcribed into cDNA using the Superscript-III First-Strand Synthesis kit (Invitrogen) following the manufacturer's protocol. RT-qPCR was performed with the SYBR Green Master Mix (Invitrogen) in a Realplex2 Mastercycler ep gradient S thermal cycler (Eppendorf). The PCR program followed for all the primers was an activation at 95° C. for 15 min, followed by 40 cycles of 95° C. for 30 sec, 54° C. for 1 min, and 72° C. for 45 sec. The reaction was finally put to hold at 4 C. The primers were synthesized by Integrated DNA Technologies (Coralville, IA and are described in Table 2. 18S was used as the reference genes for the mRNA levels. Fold-expression was calculated according to the ΔΔCt method.

[5] = tested on: MDA-MB-231 cells; assay: Wound healing assay; format: cell-based, human; conditions: MDA-MB-231, dose-dependent, sub-IC50 concentrations, 18 h
Description: Wound healing assay: The wound-healing assay on highly metastatic MDA-MB-231 cells was performed to check the anti-migratory activity of the peptides. MDA-MB-231 cells were plated in a six-well tissue culture plate to form a sub-confluent cell monolayer. The monolayer was scraped with a sterile 200 μL pipette tip in the middle of the culture well to produce equal-sized wounds. Cell debris was removed and the scratched cell monolayer was supplemented with fresh media containing sub-IC 50 concentrations of MIEN1-derived peptide and its analogs. Wound areas were measured by ImageJ software after 18 h and were compared to control.

[6] = tested on: MDA-MB-231 orthotopic tumors; assay: Orthotopic breast cancer model in athymic nude mice; format: in vivo; conditions: for tumor growth: 30 mg/kg peritumoral every alternate day, 30 days; for decrease of tumor volume: 30 mg/kg peritumoral on alternate days, vs control
Description: Orthotropic Breast Cancer Models in Mice: All in vivo experiments were conducted on 6-8-week-old athymic nude mice (Charles River). MDA-M13-231 (1.5×10^6) cells were suspended in 50% Matrigel in DMEM high glucose (vol/vol) on ice for mammary fat pad injection. The control group received the same volume of matrigel (Corning Cat #356234) and media but no cells. […] Tumor volume was measured using a digital Vernier caliper on alternate days. The tumor volumes (mm3) were calculated using the following formula V=(W2×L)/2 (V, tumor volume: W, tumor width; L, tumor length). Mice were euthanized when rumors in the control group reached˜10% of body weight. At the end of the experiment, all animals were weighed, euthanized, and liver, lung, spleen, kidney brain, and tumors were harvested. The weights of tumors and organs were recorded.

[7] = tested on: focal adhesion kinase (FAK) phosphorylation at tyrosine 925; assay: Western blot, phosphorylation of FAK; format: cell-based, human; conditions: MDA-MB-231 cell lysates, 48 h
Description: as §1

[8] = tested on: phosphorylation of src at tyrosine 416; assay: Western blot, phosphorylation of src; format: cell-based, human; conditions: MDA-MB-231, 48 h
Description: as §1

Substance | phosphorylated cofilin [1] | number of invaded cells [2] | changes in the transcriptome [3] | gene expression of SLUG, SNAIL, MMP 9, N-Cadherin and Zeb-1 [4] | gene expression of epithelial marker E-Cadherin [4] | number of migrated cells in the wound healing assay [5] | tumor growth [6] | decrease of tumor volume [6] [%] | response as per RECIST ([6]; 30 mg/kg, human tumor equivalent) | phosphorylation of FAK at tyrosine 925 [7] | phosphorylation of FAK at tyrosine 925 ([7]; listed as LA31K) | phosphorylation of src at tyrosine 416 [8] | phosphorylation of src at tyrosine 416 ([8]; listed as LA31K)
LAIAVK [LA3IK] | accumulation of phosphorylated cofilin | considerable decrease in the number of invaded cells | inhibited genes responsible for migration and cancer progression | significant decrease | concomitant increase | significantly reduced number of migrated cells | decreased tumor growth significantly | 75.39 | partial response | inhibited | marked inhibition | inhibited | marked inhibition
RPPCVIL [RP-7] | accumulation of phosphorylated cofilin | considerable decrease in the number of invaded cells |  | significant decrease | concomitant increase | significantly reduced number of migrated cells | decreased tumor growth significantly | 37.43 |  | inhibited; also recorded: marked inhibition |  | inhibited; also recorded: marked inhibition | 
